Assay type in all cases: physicochemical
Data set [1] in a line: Test Example 5: photostability in plastic container containing an ultraviolet absorber. Particulars: for Analogs (%): aqueous composition 0.4 g/100 mL as free form, pH 6.0, polypropylene container containing ultraviolet absorber (transmittance 300 to 335 nm: 7.2%). How it is done:
Based on the results obtained in Test Examples 3 and 4, stabilization of an aqueous composition containing ripasudil was attempted by storing the aqueous composition in a container containing an ultraviolet absorber.
Specifically, an aqueous composition containing, per 100 mL, 0.4896 g of ripasudil monohydrochloride dihydrate (0.4 g, as the free form of ripasudil), 0.4 g of anhydrous sodium dihydrogen phosphate, 2.136 g of glycerin, 0.002 g of benzalkonium chloride, an appropriate amount of sodium hydroxide (pH 6.0), and sterile purified water (balance) was prepared. This aqueous composition was then stored in the below-described container for eye drops made of polypropylene, which contained an ultraviolet absorber. The aqueous composition was then irradiated with 4000 lux of light to give a cumulative radiation dose of 1,200,000 lux.hr, at 25° C., with a D65 fluorescent lamp as the light source, using a photostability tester (LT-120A: Nagano Science Corporation).
The amount of ripasudil analogs was evaluated for the sample before and after exposure to light, as in Test Example 1.
A container for eye drops made of polypropylene into which a benzotriazole-based ultraviolet absorber was mixed was used.

Data set [2] is described as follows: Test Example 7: Preservation Test No. 1, color difference (ΔYI) at 60° C. Particulars: for ΔYI: aqueous composition of Table 7 (phosphate, pH 6.7), 60° C. for 3 months; for Evaluation (ΔYI): aqueous composition of Table 7, 60° C. for 3 months. How it is done: An aqueous composition of the formulation shown in Table 7 was prepared in accordance with a conventional method, and then placed in a container made of polyethylene (PE), polypropylene (PP), or polyvinyl chloride (PVC) to produce a pharmaceutical preparation. Each of the resulting pharmaceutical preparations was preserved at 60° C. for 3 months, and a color difference (ΔYI) before and after the preservation was measured using a color difference meter (spectrophotometer, CM-700d: Konica Minolta Sensing, Inc.). A ΔYI value of 5 or more was rated as “b”, and a ΔYI value of less than 5 was rated as “a”. [table]

Data set [3] in a line: Test Example 3: wavelengths of rays causing degradation of ripasudil in an aqueous composition No. 1. To be noted: for Analogs (%): about 15 W·h/m^2, 25° C.; for increase in the amount of analogs: aqueous composition, in words. How it is done:
In the following test examples, ripasudil monohydrochloride dihydrate can be produced in accordance with the method described in WO2006/057397, for example. Moreover, in the following test examples, measurement of ripasudil and its analogs using HPLC was performed using an ODS column as the column, 0.01 mol/L phosphate buffer and acetonitrile as the mobile phase, and an ultraviolet absorptiometer (wavelength: 280 nm) as the detector. The wavelengths of rays causing the photodegradation of ripasudil in the aqueous composition examined in Test Example 2 were identified by examining the presence or absence of degradation products formed by exposure to light, by irradiation of rays with a specific range of wavelengths. Specifically, an aqueous composition containing, per 100 mL, 0.0612 g of ripasudil monohydrochloride dihydrate (0.05 g as the free form of ripasudil), 1.19 g of boric acid, 0.42 g of potassium chloride, 0.002 g of benzalkonium chloride, an appropriate amount of sodium hydroxide (pH 6.7), and sterile purified water (balance) was prepared, and this aqueous composition was stored in a transparent container made of polypropylene. The aqueous composition was then irradiated with rays with wavelengths in the range of approximately 270 to 335 nm, 320 to 395 nm, 370 to 435 nm, 430 to 470 nm, 470 to 530 nm, 525 to 575 nm, 570 to 630 nm, 625 to 675 nm, or 660 to 740 nm, at 25° C., using a spectroradiometer equipped with optical filters (spectral unit: HSU-100S, light source: MAX-302FBD; both from Asahi Spectra Co., Ltd.). Note that the rays of wavelengths in each of the ranges were emitted at a radiation energy of about 15 w·h/m^2. To examine the presence or absence of photodegradation products of ripasudil, the presence or absence of an increase in the amount of ripasudil analogs was evaluated, using the same method as that of Test Example 1.

The nature of data set [4]: Test Example 8: Preservation Test No. 2, color difference (ΔYI) at 60° C. To be noted: for ΔYI: aqueous composition of Table 9 (boric acid, pH 6.7), 60° C. for 3 months; for Evaluation (ΔYI): aqueous composition of Table 9, 60° C. for 3 months. As to the method: An aqueous composition of the formulation shown in Table 9 was prepared in accordance with a conventional method, and then placed in a container made of polyethylene (PE) or polypropylene (PP) to produce a pharmaceutical preparation. Each of the resulting pharmaceutical preparations was preserved at 60° C. for 3 months, and a color difference (ΔYI) before and after the preservation was measured using a color difference meter (spectrophotometer, CM-700d: Konica Minolta Sensing, Inc.). A ΔYI value of 5 or more was rated as “b”, and a ΔYI value of less than 5 was rated as “a”. [table]

Molecules are shown by their SMILES.

As for `C[C@H]1CNCCCN1S(=O)(=O)c1cccc2cncc(F)c12` [ripasudil, 4-fluoro-5-[[(2S)-2-methyl-1,4-diazepan-1-yl]sulfonyl]isoquinoline], the “Analogs (%)” value in data set [1] (D65 lamp, 25° C., 1,200,000 lux·hr) was determined as 0.55%; in data set [1] (before exposure to light), 0.11%; in data set [3] (aqueous composition 0.05 g/100 mL as free form, boric acid, pH 6.7, transparent polypropylene container, emitted wavelengths 270 to 335 nm), 4.22%; in data set [3] (same composition, emitted wavelengths 320 to 395 nm), 1.23%; in data set [3] (same composition, emitted wavelengths 370 to 435 nm), 0.05%; in data set [3] (same composition, emitted wavelengths 430 to 470 nm), 0.05%. Also, the “Analogs (%)” value in data set [3] (same composition, emitted wavelengths 470 to 530 nm) turned out to be 0.05%; in data set [3] (same composition, emitted wavelengths 525 to 575 nm), 0.05%; in data set [3] (same composition, emitted wavelengths 570 to 630 nm) it was 0.05%; in data set [3] (same composition, emitted wavelengths 625 to 675 nm) it was 0.05%; in data set [3] (same composition, emitted wavelengths 660 to 740 nm) it was 0.05%. Also, the “photostability of ripasudil in the aqueous composition” value in data set [1] (container with average transmittance at 300 to 335 nm of 7.2%, in words) is on record as “improved”. In addition, the ΔYI in data set [2] (container PE) turned out to be 4.07; in data set [2] (container PP) it was 4.42; in data set [2] (container PVC), 7.45; in data set [4] (container PE) it was 4.15; in data set [4] (container PP), 4.64. The “Evaluation (ΔYI)” value in data set [2] (container PE) is listed as “a (a ΔYI value of less than 5 was rated as “a”)”; in data set [2] (container PP) it was “a (a ΔYI value of less than 5 was rated as “a”)”; in data set [2] (container PVC) it was “b (A ΔYI value of 5 or more was rated as “b”)”; in data set [4] (container PE), “a (a ΔYI value of less than 5 was rated as “a”)”; in data set [4] (container PP) it was “a (a ΔYI value of less than 5 was rated as “a”)”. Also, the “increase in the amount of analogs” value is given as “an increase in the amount of analogs was not observed” in data set [3] (rays with wavelengths of 370 nm or more) and “a significant increase in the amount of analogs was observed” in data set [3] (shorter wavelengths, particularly 270 to 335 nm).

The values above are taken from patent US20240216272A1, “PHARMACEUTICAL PREPARATION” (KOWA COMPANY, LTD., priority 2014, published 2024).
